Measured values published in US20130197023A1, “NEUROPROTECTION BY PHARMACOLOGICAL CHAPERONING OF NICOTINIC ACETYLCHOLINE RECEPTORS” (priority 2012, published 2013).
Read-outs that look alike come from different tables or passages of the source.

Assays:
[1] = system: ATF6; details: 24 hr, 0.1 μM nicotine
Procedure: (§1) Cortical neurons were extracted from day 17 mouse embryos; 150,000 cells were plated in each 35 mm poly-l-lysine-coated glass bottom culture dish in a solution containing Neurobasal, B27, and Glutamax supplemented with 3% equine serum. On day four of culture, neurons were treated with 1 μM cytosine arabinoside. Neurons were maintained via 50% exchange with feeding medium (Neurobasal, B27, and Glutamax) twice per wk. Neurons were transfected five days after plating as follows: 1 μg of each nAChR subunit plasmid was incubated with 20 μg Nupherin Neuron in 400 μl of Neurobasal medium. 10 μL of Lipofectamine 2000 was separately incubated for 15 min in 400 μl Neurobasal medium. The two solutions were combined and incubated for 45 min at room temperature, then applied to cells. After 1 hr incubation, the total medium was replaced with fresh 2 ml medium with or without 0.1 μM nicotine. For immunostaining, cultures were fixed the following day with 4% paraformaldehyde (10 min), permeabilized in 0.02% Tris-buffered saline (TBS)-TritonX (15 min) and blocked in 10% goat serum (30 min). Following 2×TBS washes, the appropriate primary antibody in 1% goat serum was applied overnight at 4° C. The following day cultures were rinsed in TBS, and incubated in 1% goat serum containing secondary antibody (1:5000) (30 min). Cells were rinsed in TBS and imaged immediately.
(§2) Immunostaining employed ATF6 mouse monoclonal (Abcam, 11909, 1:50 dilution), rabbit polyclonal peIF2α and total eIF2α (Cell Signaling Technology, 9721 and 5324, both 1:200 dilution). Alexa 488-labeled secondary antibodies were used (Invitrogen, donkey anti-mouse and goat anti-rabbit).

[2] = system: eIF2α; details: 24 h, 0.1 μM nicotine; for whole cell and cytoplasmic peIF2α fluorescence: p=0.06
Procedure: as §1, §2

[3] = system: Neuro-2a cells; assay type: cell-based, mouse
Procedure: Neuro-2a cells were transfected with α4-eGFP (500 ng)+β2wt (500 ng)+GaIT-mcherry (250 ng) or pDSred2-ER (100 ng) and cells were incubated for 48 h with appropriate concentrations of nicotine, cytisine or DHβE.
In ImageJ, background was subtracted, and DSred2-ER fluorescence was thresholded and demarcated for each cell.

[4] = target: T1, α4-eGFPβ2-wt nAChRs (Mus musculus, UniProt O70174+Q9ERK7); assay type: cell-based
T1 construct: expressed in transfected cells; host or cells: mouse Neuro-2a cells
Procedure: Neuro-2a cells were plated on 12 mm glass coverslips within 35 mm plastic bottom cell culture dishes. The following day, cells were transfected with 500 ng α4-eGFP and 500 ng β2-wt nAChR subunits. 24 to 48 hr later, glass coverslips were transferred to dishes on the microscope stage. Green fluorescence was visualized with an upright microscope (BX50WI, Olympus) and UV illumination with appropriate excitation filters. Agonist-induced currents were tested at a holding potential of −65 mV using a focal, relatively rapid drug application system designed to minimize desensitization (Xiao et al., 2009). We applied drugs from the lowest to highest concentration at 3 min intervals to minimize desensitization. Whole-cell patch-clamp recordings were with a MultiClamp 700B amplifier, a 1322 analog-to-digital converter, and pCLAMP 9.2 software (all from Axon Instruments, Molecular Devices). Data were sampled at 10 kHz and filtered at 2 kHz.
The intrapipette solution contained (in mM): 135 potassium gluconate, 5 KCl, 5 EGTA, 0.5 CaCl2, 10 HEPES, 2 Mg-ATP, and 0.1 GTP; the pH was adjusted to 7.2 with Tris base and the osmolarity to 300 mOsm with sucrose. The extracellular solution contained (in mM): 140 NaCl, 5 KCl, 2 CaCl2, 1 MgCl2, 10 HEPES, and 10 glucose; pH was adjusted to 7.3 with Tris base. The Nernst potential for Cl^− in the intrapipette solution is −82.9 mV. The bath was continuously perfused with extracellular solution (ECS) at room temperature (23±1° C.). The patch electrodes had resistances of 5 to 8 MΩ. The junction potential between the patch pipette and the bath solutions was nulled just before forming a gΩ seal. Series resistance was monitored and compensated by 70-80% throughout recordings. The data were ignored if the series resistance (15-30 MΩ) changed by >20% during the recording session.

T1 sequence (O70174 31-629): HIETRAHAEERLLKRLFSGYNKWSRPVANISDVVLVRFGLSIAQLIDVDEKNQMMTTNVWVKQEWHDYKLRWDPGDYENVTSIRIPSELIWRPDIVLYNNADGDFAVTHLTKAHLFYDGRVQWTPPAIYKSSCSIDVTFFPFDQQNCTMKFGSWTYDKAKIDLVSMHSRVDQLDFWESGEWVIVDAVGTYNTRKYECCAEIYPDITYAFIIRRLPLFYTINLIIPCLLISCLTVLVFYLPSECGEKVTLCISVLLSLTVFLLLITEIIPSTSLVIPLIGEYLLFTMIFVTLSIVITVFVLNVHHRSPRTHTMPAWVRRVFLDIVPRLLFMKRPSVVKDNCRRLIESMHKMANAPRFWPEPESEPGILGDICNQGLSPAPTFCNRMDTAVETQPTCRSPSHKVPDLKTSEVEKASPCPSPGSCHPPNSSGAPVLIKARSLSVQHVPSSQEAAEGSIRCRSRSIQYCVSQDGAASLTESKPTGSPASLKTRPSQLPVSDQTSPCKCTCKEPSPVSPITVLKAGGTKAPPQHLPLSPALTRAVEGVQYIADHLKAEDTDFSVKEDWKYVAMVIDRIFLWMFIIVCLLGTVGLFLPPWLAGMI
T1 sequence (Q9ERK7 26-501): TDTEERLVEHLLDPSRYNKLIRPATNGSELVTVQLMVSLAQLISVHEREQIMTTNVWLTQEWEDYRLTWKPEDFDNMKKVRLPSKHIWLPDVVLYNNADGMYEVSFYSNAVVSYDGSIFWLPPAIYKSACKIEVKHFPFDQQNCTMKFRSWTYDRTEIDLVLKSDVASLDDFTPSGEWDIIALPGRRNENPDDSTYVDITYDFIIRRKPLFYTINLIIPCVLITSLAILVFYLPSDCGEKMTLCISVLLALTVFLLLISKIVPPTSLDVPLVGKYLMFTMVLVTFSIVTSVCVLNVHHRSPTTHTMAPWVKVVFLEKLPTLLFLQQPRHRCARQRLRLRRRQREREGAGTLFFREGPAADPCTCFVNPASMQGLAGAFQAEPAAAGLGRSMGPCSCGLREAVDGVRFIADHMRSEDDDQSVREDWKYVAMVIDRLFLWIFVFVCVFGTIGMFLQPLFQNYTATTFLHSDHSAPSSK

CN1CCCC1c1cccnc1 (stereo not shown) [Nicotine, nicotine]
reduction in the nucleus to whole cell ATF6 fluorescence ratio ([1]; compared to untreated cells): 50%
α4-mcherryβ2wt-expressing cells showing nuclear ATF6 localization ([1]; 56% in the absence of nicotine): 14%
total eIF2α fluorescence within the cytoplasm or nucleus [2]: did not affect
total eIF2α fluorescence within the cytoplasm or nucleus ([2]; listed as nicotine): without affecting
whole cell and cytoplasmic peIF2α fluorescence [2]: near significant reduction
whole cell and cytoplasmic peIF2α fluorescence ([2]; listed as nicotine): trend towards reduction
effect on peripheral ER area (in words) [3]: increased
increase in the average ER area [3]: 1.7 fold
evoked currents as % of maximum currents induced by 500 μM nicotine [4]: 0.44±0.07%
fraction of the total receptor population activated [4]: 0.4%
